Source: patent US8741836B2, “Polypeptides” (Novo Nordisk A/S, priority 2011, dated 2014)
Starred links: 1 amine or outer side, 2 acyl side, 3 side chain; linkers in the order of their positions; H or OH if unused. Positions of bridges follow the written chain, without caps; N, C: chain ends. Residues, ends and D or L forms follow the SMILES beside them. Groups on a side chain read outwards from the residue. *: point of attachment. C20 diacid = O=C(O)CCCCCCCCCCCCCCCCCCC(=O)*; C18 diacid = O=C(O)CCCCCCCCCCCCCCCCC(=O)*; γGlu = O=C(O)[C@H](CCC(=O)[*:2])N[*:1]; AEEA = NCCOCCOCC(=O)O

Assay: Assay (III) ThT fibrillation assay for physical stability
Format: physicochemical
Settings: for ThT pH 4.0 lag time: pH 4.0, ThT fibrillation assay
Source text: Assay (III)—ThT Fibrillation Assays for the Assessment of Physical Stability of Protein formulations Low physical stability of a polypeptide may lead to amyloid fibril formation, which is observed as well-ordered, thread-like macromolecular structures in the sample eventually resulting in gel formation. This has traditionally been measured by visual inspection of the sample. However, that kind of measurement is very subjective and depending on the observer. Therefore, the application of a small molecule indicator probe is much more advantageous. Thioflavin T (ThT) is such a probe and has a distinct fluorescence signature when binding to fibrils [Naiki et al. (1989) Anal. Biochem. 177, 244-249; LeVine (1999) Methods. Enzymol. […], 274-284]. The time course for fibril formation can be described by a sigmoidal curve with the following expression [Nielsen et al. (2001) Biochemistry 40, 6036-6046]: [formula] Here, F is the ThT fluorescence at the time t. The constant t0 is the time needed to reach 50% of maximum fluorescence. […] Few of those intermediates nucleate to form a template onto which further intermediates may assembly and the fibrillation proceeds. The lag-time corresponds to the interval in which the critical mass of nucleus is built up and the apparent rate constant is the rate with which the fibril itself is formed. Sample Preparation Samples were prepared freshly before each assay. Each sample composition is described in each example. The pH of the sample was adjusted to the desired value using appropriate amounts of concentrated NaOH and HClO4 or HCl. Thioflavin T was added to the samples from a stock solution in H2O to a final concentration of 1 μM. Sample aliquots of 200 μl were placed in a 96 well microtiter plate (Packard OptiPlate™-96, white polystyrene). Usually, four or eight replica of each sample (corresponding to one test condition) were placed in one column of wells. The plate was sealed with Scotch Pad (Qiagen). Incubation and Fluorescence Measurement Incubation at given temperature, shaking and measurement of the ThT fluorescence emission were done in a Fluoroskan Ascent FL fluorescence platereader or Varioskan platereader (Thermo Labsystems). The temperature was adjusted to 37° C. The orbital shaking was adjusted to 960 rpm with an amplitude of 1 mm in all the presented data. Fluorescence measurement was done using excitation through a 444 nm filter and measurement of emission through a 485 nm filter. Each run was initiated by incubating the plate at the assay temperature for 10 min. The plate was measured every 20 minutes for a desired period of time. Between each measurement, the plate was shaken and heated as described. Data Handling The measurement points were saved in Microsoft Excel format for further processing and curve drawing and fitting was performed using GraphPad Prism. The background emission from ThT in the absence of fibrils was negligible. The data points are typically a mean of four or eight samples and shown with standard deviation error bars. Only data obtained in the same experiment (i.e. samples on the same plate) are presented in the same graph ensuring a relative measure of fibrillation between experiments. The data set may be fitted to Eq. (1). However, since full sigmodial curves in this case are not always achieved during the measurement time, the degree of fibrillation is expressed as ThT fluorescence tabulated as the mean of the samples and shown with the standard deviation at various time points. Measurement of Initial and Final Concentrations The polypeptide concentration in each of the tested formulations were measured both before application in the ThT fibrillation assay (“Initial”) and after completion of the ThT fibrillation (“After ThT assay”). Concentrations were determined by reverse HPLC methods using a pramlintide standard as a reference. Before measurement after completion 150 μl was collected from each of the replica and transferred to an Eppendorf tube. […]

SMILES	ThT pH 4.0 lag time [h]	ThT pH 4.0 lag time (physical stability in fibrillogenesis assay) (pH 4.0) [h]
CC[C@H](C)[C@H](NC(=O)[C@@H]1CCCN1C(=O)CNC(=O)[C@H](Cc1ccccc1)NC(=O)[C@H](CC(N)=O)NC(=O)[C@H](CC(N)=O)NC(=O)[C@H](CO)NC(=O)[C@H](CO)NC(=O)[C@H](Cc1c[nH]cn1)NC(=O)[C@H](CCCNC(=N)N)NC(=O)[C@H](CC(C)C)NC(=O)[C@H](Cc1ccccc1)NC(=O)[C@H](CCC(=O)O)NC(=O)[C@H](C)NC(=O)[C@H](CC(C)C)NC(=O)[C@H](CCCNC(=N)N)NC(=O)[C@H](CCC(N)=O)NC(=O)[C@@H](NC(=O)[C@H](C)NC(=O)[C@@H]1CSSC[C@H](NC(=O)[C@H](CCCCN)NC(=O)CC[C@H](NC(=O)CCCCCCCCCCCCCCCCC(=O)O)C(=O)O)C(=O)N[C@@H](CC(N)=O)C(=O)N[C@@H]([C@@H](C)O)C(=O)N[C@@H](C)C(=O)N[C@@H]([C@@H](C)O)C(=O)N1)[C@@H](C)O)C(=O)N[C@@H](CC(C)C)C(=O)N1CCC[C@H]1C(=O)N1CCC[C@H]1C(=O)N[C@H](C(=O)N[C@@H](CC(N)=O)C(=O)N[C@H](C(=O)NCC(=O)N[C@@H](CO)C(=O)N[C@@H](Cc1c[nH]cn1)C(=O)N[C@H](C(=O)N[C@@H](Cc1ccc(O)cc1)C(N)=O)[C@@H](C)O)C(C)C)[C@@H](C)O [Example 61, N-alpha-[(S)-4-Carboxy-4-(17-carboxyheptadecanoylamino)butyryl]-[Glu14,Arg17,His35]-pramlintide] ({C18 diacid-γGlu}-KCNTATCATQRLAEFLRHSSNNFGPILPPTNVGSHTY-NH2; disulfide 2-7)	>45	
CC[C@H](C)[C@H](NC(=O)[C@@H]1CCCN1C(=O)CNC(=O)[C@H](Cc1ccccc1)NC(=O)[C@H](CC(N)=O)NC(=O)[C@H](CCC(N)=O)NC(=O)[C@H](CO)NC(=O)[C@H](CO)NC(=O)[C@H](Cc1c[nH]cn1)NC(=O)[C@H](Cc1c[nH]cn1)NC(=O)[C@H](CC(C)C)NC(=O)[C@H](Cc1ccccc1)NC(=O)[C@H](CCC(=O)O)NC(=O)[C@H](C)NC(=O)[C@H](CC(C)C)NC(=O)[C@H](CCCNC(=N)N)NC(=O)[C@H](CCC(N)=O)NC(=O)[C@@H](NC(=O)[C@H](C)NC(=O)[C@@H]1CSSC[C@H](NC(=O)CNC(=O)CC[C@H](NC(=O)CCCCCCCCCCCCCCCCCCC(=O)O)C(=O)O)C(=O)N[C@@H](CC(N)=O)C(=O)N[C@@H]([C@@H](C)O)C(=O)N[C@@H](C)C(=O)N[C@@H]([C@@H](C)O)C(=O)N1)[C@@H](C)O)C(=O)N[C@@H](CC(C)C)C(=O)N1CCC[C@H]1C(=O)N1CCC[C@H]1C(=O)N[C@H](C(=O)N[C@@H](CC(N)=O)C(=O)N[C@H](C(=O)NCC(=O)N[C@@H](CO)C(=O)N[C@@H](CCC(N)=O)C(=O)N[C@H](C(=O)N1CCC[C@H]1C(N)=O)[C@@H](C)O)C(C)C)[C@@H](C)O [Example 137, N-alpha-[(S)-4-Carboxy-4-(19-carboxynonadecanoylamino)butyryl]-[Gly1,Glu14,His17,Gln21,Gln35,Pro37]-pramlintide] ({C20 diacid-γGlu}-GCNTATCATQRLAEFLHHSSQNFGPILPPTNVGSQTP-NH2; disulfide 2-7 (inferred))	29	
CC[C@H](C)[C@H](NC(=O)[C@@H]1CCCN1C(=O)CNC(=O)[C@H](Cc1ccccc1)NC(=O)[C@H](CC(N)=O)NC(=O)[C@H](CCCCNC(=O)COCCOCCNC(=O)COCCOCCNC(=O)CC[C@H](NC(=O)CCCCCCCCCCCCCCCCCCC(=O)O)C(=O)O)NC(=O)[C@H](CO)NC(=O)[C@H](CO)NC(=O)[C@H](CCCNC(=N)N)NC(=O)[C@@H](NC(=O)[C@H](CC(C)C)NC(=O)[C@H](Cc1ccccc1)NC(=O)[C@H](CCC(=O)O)NC(=O)[C@H](C)NC(=O)[C@H](CC(C)C)NC(=O)[C@H](CCCNC(=N)N)NC(=O)[C@H](CCC(N)=O)NC(=O)[C@@H](NC(=O)[C@H](C)NC(=O)[C@@H]1CSSC[C@H](NC(=O)[C@@H](N)CCCCN)C(=O)N[C@@H](CC(N)=O)C(=O)N[C@@H]([C@@H](C)O)C(=O)N[C@@H](C)C(=O)N[C@@H]([C@@H](C)O)C(=O)N1)[C@@H](C)O)C(C)C)C(=O)N[C@@H](CC(C)C)C(=O)N[C@@H](CO)C(=O)N[C@@H](CCCNC(=N)N)C(=O)N[C@H](C(=O)N[C@@H](CC(N)=O)C(=O)N[C@H](C(=O)NCC(=O)N[C@@H](CO)C(=O)N[C@@H](CCCNC(=N)N)C(=O)N[C@H](C(=O)N[C@@H](Cc1ccc(O)cc1)C(N)=O)[C@@H](C)O)C(C)C)[C@@H](C)O [Example 150, N-epsilon21-[2-(2-{2-[2-(2-{2-[(S)-4-Carboxy-4-(19-carboxyheptadecanoylamino)butyrylamino]ethoxy}ethoxy)acetylamino]ethoxy}ethoxy)acetyl]-[Glu14,Arg18,Lys21,Ser28,Arg29,Arg35]-pramlintide] (H-KCNTATCATQRLAEFLVRSSK([AEEA-AEEA-γGlu-C20 diacid])NFGPILSRTNVGSRTY-NH2; disulfide 2-7)		>45
CC[C@H](C)[C@H](NC(=O)[C@@H]1CCCN1C(=O)CNC(=O)[C@H](Cc1ccccc1)NC(=O)[C@H](CC(N)=O)NC(=O)[C@H](CC(N)=O)NC(=O)[C@H](CO)NC(=O)[C@H](CO)NC(=O)[C@H](Cc1c[nH]cn1)NC(=O)[C@H](Cc1c[nH]cn1)NC(=O)[C@H](CC(C)C)NC(=O)[C@H](Cc1ccccc1)NC(=O)[C@H](CCC(=O)O)NC(=O)[C@H](C)NC(=O)[C@H](CC(C)C)NC(=O)[C@H](CCCNC(=N)N)NC(=O)[C@H](CCC(N)=O)NC(=O)[C@@H](NC(=O)[C@H](C)NC(=O)[C@@H]1CSSC[C@H](NC(=O)[C@H](CCCCN)NC(=O)CC[C@H](NC(=O)CCCCCCCCCCCCCCCCCCC(=O)O)C(=O)O)C(=O)N[C@@H](CC(N)=O)C(=O)N[C@@H]([C@@H](C)O)C(=O)N[C@@H](C)C(=O)N[C@@H]([C@@H](C)O)C(=O)N1)[C@@H](C)O)C(=O)N[C@@H](CC(C)C)C(=O)N1CCC[C@H]1C(=O)N1CCC[C@H]1C(=O)N[C@H](C(=O)N[C@@H](CC(N)=O)C(=O)N[C@@H](Cc1c[nH]cn1)C(=O)NCC(=O)N[C@@H](CO)C(=O)N[C@@H](CC(N)=O)C(=O)N[C@H](C(=O)N[C@@H](Cc1ccc(O)cc1)C(N)=O)[C@@H](C)O)[C@@H](C)O [Example 116, N-alpha-[(S)-4-Carboxy-4-(19-carboxynonadecanoylamino)butyryl]-[Glu14,His17,His32]-pramlintide] ({C20 diacid-γGlu}-KCNTATCATQRLAEFLHHSSNNFGPILPPTNHGSNTY-NH2; disulfide 2-7)	>45	
CC[C@H](C)[C@H](NC(=O)[C@@H]1CCCN1C(=O)CNC(=O)[C@H](Cc1ccccc1)NC(=O)[C@H](CC(N)=O)NC(=O)[C@H](CC(N)=O)NC(=O)[C@H](CO)NC(=O)[C@H](CO)NC(=O)[C@H](Cc1c[nH]cn1)NC(=O)[C@H](Cc1c[nH]cn1)NC(=O)[C@H](CC(C)C)NC(=O)[C@H](Cc1ccccc1)NC(=O)[C@H](CCC(=O)O)NC(=O)[C@H](C)NC(=O)[C@H](CC(C)C)NC(=O)[C@H](CCCNC(=N)N)NC(=O)[C@H](CCC(N)=O)NC(=O)[C@@H](NC(=O)[C@H](C)NC(=O)[C@@H]1CSSC[C@H](NC(=O)[C@H](CCCCN)NC(=O)CC[C@H](NC(=O)CCCCCCCCCCCCCCCCCCC(=O)O)C(=O)O)C(=O)N[C@@H](CC(N)=O)C(=O)N[C@@H]([C@@H](C)O)C(=O)N[C@@H](C)C(=O)N[C@@H]([C@@H](C)O)C(=O)N1)[C@@H](C)O)C(=O)N[C@@H](CC(C)C)C(=O)N1CCC[C@H]1C(=O)N1CCC[C@H]1C(=O)N[C@H](C(=O)N[C@@H](CC(N)=O)C(=O)N[C@H](C(=O)NCC(=O)N[C@@H](CO)C(=O)N[C@@H](CC(N)=O)C(=O)N[C@@H](Cc1c[nH]cn1)C(=O)N[C@@H](Cc1ccc(O)cc1)C(N)=O)C(C)C)[C@@H](C)O [Example 114, N-alpha-[(S)-4-Carboxy-4-(19-carboxynonadecanoylamino)butyryl]-[Glu14,His17,His36]-pramlintide] ({C20 diacid-γGlu}-KCNTATCATQRLAEFLHHSSNNFGPILPPTNVGSNHY-NH2; disulfide 2-7 (inferred))	>45	
